From patent publication US20070128217A1 (priority 2003, published 2007)

Assays:
[1] = system: rabbit serum obtained by immunizing a rabbit with the SARS-CoV strain Frankfurt 1; type: binding; set-up: Binding of a rabbit serum to linear peptides / Binding of a rabbit serum to looped peptides / Rabbit serum linear peptides / Rabbit serum looped peptides / Binding of a rabbit serum to linear peptides of protein N of SARS-CoV Urbani (Rabbit serum linear peptides) / Binding of a rabbit serum to looped/cyclic peptides of protein N of SARS-CoV Urbani (Rabbit serum looped peptides): unit not given here
[2] = system: control sera (pooled serum of ten healthy LUMC hospital workers; commercial negative donor pooled serum from the Dutch bloodbank); type: binding, human; set-up: Binding of Control serum LUMC to linear peptides / Binding of Control serum Blood-bank to linear peptides / Binding of Control serum LUMC to looped peptides / Binding of Control Serum Blood-Bank to Looped peptides / Binding of Control serum LUMC to linear peptides of the protein M of SARS-CoV Urbani / Binding of Control serum Blood-bank to linear peptides of the protein M of SARS-CoV Urbani / Binding of Control serum LUMC to looped peptides of the protein M of SARS-CoV Urbani / Binding of Control Serum Blood-Bank to Looped peptides of the protein M of SARS-CoV Urbani: unit not given here
[3] = system: antibodies in sera from SARS patients (sera 1a, 1b, 2, 6, 37, 62, London, SARS-yellow, SARS-green); type: binding, human; set-up: Binding of serum 6 to linear peptides of protein X1 of SARS-CoV Urbani / Binding of serum 37 to linear peptides of protein X1 of SARS-CoV Urbani / Binding of serum 6 to looped/cyclic peptide (PEPSCAN-ELISA) / Binding of serum 37 to looped/cyclic peptide (PEPSCAN-ELISA) / Binding of serum 37 to looped/cyclic peptides of protein X1 of SARS-CoV Urbani / Binding of serum 6 to linear peptides of protein X2 / Binding of serum 37 to linear peptides of protein X2 / Binding of serum 37 to looped/cyclic peptides of protein X2 of SARS-CoV Urbani / Binding of serum 6 to linear peptides of protein M of SARS-CoV Urbani / Binding of serum 37 to linear peptides of protein M of SARS-CoV Urbani / Binding of serum 6 to looped/cyclic peptides of protein M of SARS-CoV Urbani / Binding of serum 37 to looped/cyclic peptides of protein M of SARS-CoV Urbani / Binding of serum 6 to linear peptides of protein X3 of SARS-CoV Urbani / Binding of serum 37 to linear peptides of protein X3 of SARS-CoV Urbani / Binding of serum 37 to looped/cyclic peptides of protein X3 of SARS-CoV Urbani / Binding of serum 6 to linear peptides of protein X4 of SARS-CoV Urbani / Binding of serum 37 to linear peptides of protein X4 of SARS-CoV Urbani / Binding of serum 37 to looped/cyclic peptides of protein X4 of SARS-CoV Urbani / Binding of serum 6 to linear peptides of protein X5 of SARS-CoV Urbani / Binding of serum 37 to linear peptides of protein X5 of SARS-CoV Urbani / Binding of serum 37 to looped/cyclic peptides of protein X5 of SARS-CoV Urbani / Binding of serum 6 to linear peptides of protein N of SARS-CoV Urbani / Binding of serum 37 to linear peptides of protein N of SARS-CoV Urbani / Binding of serum 6 to linear peptide (PEPSCAN-ELISA) / Binding of serum 1a to looped/cyclic peptides of protein N of SARS-CoV Urbani / Binding of serum 1b to looped/cyclic peptides of protein N of SARS-CoV Urbani / Binding of serum 2 to looped/cyclic peptides of protein N of SARS-CoV Urbani / Binding of serum 6 to looped/cyclic peptides of protein N of SARS-CoV Urbani / Binding of serum 37 to looped/cyclic peptides of protein N of SARS-CoV Urbani / Binding of serum 62 to looped/cyclic peptides of protein N of SARS-CoV Urbani / Binding of serum London to looped/cyclic peptides of protein N of SARS-CoV Urbani / Binding of serum SARS-green to looped/cyclic peptides of protein N of SARS-CoV Urbani: unit not given here

SEETGTLIVNSVLLF
Binding of a rabbit serum to linear peptides [1]: 0.7 | Binding of a rabbit serum to looped peptides [1]: 0.0 | Binding of Control Serum Blood-Bank to Looped peptides [2]: 0.6 | Binding of Control serum Blood-bank to linear peptides [2]: 0.5 | Binding of Control serum LUMC to linear peptides [2]: 0.6 | Binding of Control serum LUMC to looped peptides [2]: 0.5 | Binding of serum 1a to linear peptides of protein E of SARS-CoV Urbani [3]: 0.9 | Binding of serum 1a to looped/cyclic peptides of protein E of SARS-CoV Urbani [3]: 0.4 | Binding of serum 1b to linear peptides of protein E of SARS-CoV Urbani [3]: 0.7 | Binding of serum 1b to looped/cyclic peptides of protein E of SARS-CoV Urbani [3]: 0.3 | Binding of serum 2 to linear peptides of protein E of SARS-CoV Urbani [3]: 0.3 | Binding of serum 2 to looped/cyclic peptides of protein E of SARS-CoV Urbani [3]: 0.3 | Binding of serum 6 to linear peptides of protein E of SARS-CoV Urbani [3]: 0.7 | Binding of serum 6 to looped/cyclic peptides of protein E of SARS-CoV Urbani [3]: 0.5 | Binding of serum 37 to linear peptides of protein E of SARS-CoV Urbani [3]: 0.7 | Binding of serum 37 to looped/cyclic peptides of protein E of SARS-CoV Urbani [3]: 0.4 | Binding of serum 62 to linear peptides of protein E of SARS-CoV Urbani [3]: 0.7 | Binding of serum 62 to looped/cyclic peptides of protein E of SARS-CoV Urbani [3]: 0.7 | Binding of serum London to linear peptides of protein E of SARS-CoV Urbani [3]: 0.5 | Binding of serum London to looped/cyclic peptides of protein E of SARS-CoV Urbani [3]: 0.5 | Binding of serum SARS-green to linear peptides of protein E of SARS-CoV Urbani [3]: 0.4 | Binding of serum SARS-green to looped/cyclic peptides of protein E of SARS-CoV Urbani [3]: 0.4 | Binding of serum SARS-yellow to linear peptides of protein E of SARS-CoV Urbani [3]: 0.1 | Binding of serum SARS-yellow to looped/cyclic peptides of protein E of SARS-CoV Urbani [3]: 0.5

SFVSEETGTLIVNSV
Binding of a rabbit serum to linear peptides [1]: 0.5 | Binding of a rabbit serum to looped peptides [1]: 0.1 | Binding of Control Serum Blood-Bank to Looped peptides [2]: 0.7 | Binding of Control serum Blood-bank to linear peptides [2]: 0.9 | Binding of Control serum LUMC to linear peptides [2]: 0.6 | Binding of Control serum LUMC to looped peptides [2]: 0.7 | Binding of serum 1a to linear peptides of protein E of SARS-CoV Urbani [3]: 0.9 | Binding of serum 1a to looped/cyclic peptides of protein E of SARS-CoV Urbani [3]: 0.5 | Binding of serum 1b to linear peptides of protein E of SARS-CoV Urbani [3]: 0.7 | Binding of serum 1b to looped/cyclic peptides of protein E of SARS-CoV Urbani [3]: 0.4 | Binding of serum 2 to linear peptides of protein E of SARS-CoV Urbani [3]: 0.6 | Binding of serum 2 to looped/cyclic peptides of protein E of SARS-CoV Urbani [3]: 0.5 | Binding of serum 6 to linear peptides of protein E of SARS-CoV Urbani [3]: 0.6 | Binding of serum 6 to looped/cyclic peptides of protein E of SARS-CoV Urbani [3]: 0.4 | Binding of serum 37 to linear peptides of protein E of SARS-CoV Urbani [3]: 0.8 | Binding of serum 37 to looped/cyclic peptides of protein E of SARS-CoV Urbani [3]: 0.6 | Binding of serum 62 to linear peptides of protein E of SARS-CoV Urbani [3]: 0.8 | Binding of serum 62 to looped/cyclic peptides of protein E of SARS-CoV Urbani [3]: 0.7 | Binding of serum London to linear peptides of protein E of SARS-CoV Urbani [3]: 0.5 | Binding of serum London to looped/cyclic peptides of protein E of SARS-CoV Urbani [3]: 0.5 | Binding of serum SARS-green to linear peptides of protein E of SARS-CoV Urbani [3]: 0.5 | Binding of serum SARS-green to looped/cyclic peptides of protein E of SARS-CoV Urbani [3]: 0.4 | Binding of serum SARS-yellow to linear peptides of protein E of SARS-CoV Urbani [3]: 0.1 | Binding of serum SARS-yellow to looped/cyclic peptides of protein E of SARS-CoV Urbani [3]: 0.7

TGTLIVNSVLLFLAF
Binding of a rabbit serum to linear peptides [1]: 0.5 | Binding of a rabbit serum to looped peptides [1]: 0.0 | Binding of Control Serum Blood-Bank to Looped peptides [2]: 0.4 | Binding of Control serum Blood-bank to linear peptides [2]: 0.6 | Binding of Control serum LUMC to linear peptides [2]: 0.3 | Binding of Control serum LUMC to looped peptides [2]: 0.5 | Binding of serum 1a to looped/cyclic peptides of protein E of SARS-CoV Urbani [3]: 0.4 | Binding of serum 1b to looped/cyclic peptides of protein E of SARS-CoV Urbani [3]: 0.3 | Binding of serum 2 to looped/cyclic peptides of protein E of SARS-CoV Urbani [3]: 0.4 | Binding of serum 6 to looped/cyclic peptides of protein E of SARS-CoV Urbani [3]: 0.3 | Binding of serum 37 to looped/cyclic peptides of protein E of SARS-CoV Urbani [3]: 0.3 | Binding of serum 62 to looped/cyclic peptides of protein E of SARS-CoV Urbani [3]: 0.6 | Binding of serum London to looped/cyclic peptides of protein E of SARS-CoV Urbani [3]: 0.3 | Binding of serum SARS-green to looped/cyclic peptides of protein E of SARS-CoV Urbani [3]: 0.2 | Binding of serum SARS-yellow to looped/cyclic peptides of protein E of SARS-CoV Urbani [3]: 0.4

TLAILTALRLCAYCC
Binding of a rabbit serum to linear peptides [1]: 0.7 | Binding of a rabbit serum to looped peptides [1]: 0.4 | Binding of Control Serum Blood-Bank to Looped peptides [2]: 0.7 | Binding of Control serum Blood-bank to linear peptides [2]: 0.6 | Binding of Control serum LUMC to linear peptides [2]: 0.4 | Binding of Control serum LUMC to looped peptides [2]: 0.8 | Binding of serum 1a to linear peptides of protein E of SARS-CoV Urbani [3]: 0.8 | Binding of serum 1a to looped/cyclic peptides of protein E of SARS-CoV Urbani [3]: 0.7 | Binding of serum 1b to linear peptides of protein E of SARS-CoV Urbani [3]: 0.9 | Binding of serum 1b to looped/cyclic peptides of protein E of SARS-CoV Urbani [3]: 0.6 | Binding of serum 2 to linear peptides of protein E of SARS-CoV Urbani [3]: 0.3 | Binding of serum 2 to looped/cyclic peptides of protein E of SARS-CoV Urbani [3]: 0.7 | Binding of serum 6 to linear peptides of protein E of SARS-CoV Urbani [3]: 0.6 | Binding of serum 6 to looped/cyclic peptides of protein E of SARS-CoV Urbani [3]: 0.7 | Binding of serum 37 to linear peptides of protein E of SARS-CoV Urbani [3]: 0.7 | Binding of serum 37 to looped/cyclic peptides of protein E of SARS-CoV Urbani [3]: 0.7 | Binding of serum 62 to linear peptides of protein E of SARS-CoV Urbani [3]: 0.7 | Binding of serum 62 to looped/cyclic peptides of protein E of SARS-CoV Urbani [3]: 0.7 | Binding of serum London to linear peptides of protein E of SARS-CoV Urbani [3]: 0.5 | Binding of serum London to looped/cyclic peptides of protein E of SARS-CoV Urbani [3]: 0.5 | Binding of serum SARS-green to linear peptides of protein E of SARS-CoV Urbani [3]: 0.5 | Binding of serum SARS-green to looped/cyclic peptides of protein E of SARS-CoV Urbani [3]: 0.5 | Binding of serum SARS-yellow to linear peptides of protein E of SARS-CoV Urbani [3]: 0.2 | Binding of serum SARS-yellow to looped/cyclic peptides of protein E of SARS-CoV Urbani [3]: 0.9

VAALVFLILCFTIKR
Rabbit serum linear peptides [1]: 0.5 | Rabbit serum looped peptides [1]: 0.6 | Binding of Control Serum Blood-Bank to Looped peptides [2]: 0.8 | Binding of Control serum Blood-bank to linear peptides [2]: 0.5 | Binding of Control serum LUMC to linear peptides [2]: 0.4 | Binding of Control serum LUMC to looped peptides [2]: 0.6 | Binding of serum 1a to linear peptides of protein X4 of SARS-CoV Urbani [3]: 0.6 | Binding of serum 1a to looped/cyclic peptides of protein X4 of SARS-CoV Urbani [3]: 0.8 | Binding of serum 1b to linear peptides of protein X4 of SARS-CoV Urbani [3]: 0.5 | Binding of serum 1b to looped/cyclic peptides of protein X4 of SARS-CoV Urbani [3]: 0.4 | Binding of serum 2 to linear peptides of protein X4 of SARS-CoV Urbani [3]: 0.4 | Binding of serum 2 to looped/cyclic peptides of protein X4 of SARS-CoV Urbani [3]: 0.7 | Binding of serum 6 to linear peptides of protein X4 of SARS-CoV Urbani [3]: 0.5 | Binding of serum 6 to looped/cyclic peptides of protein X4 of SARS-CoV Urbani [3]: 0.6 | Binding of serum 37 to linear peptides of protein X4 of SARS-CoV Urbani [3]: 0.7 | Binding of serum 37 to looped/cyclic peptides of protein X4 of SARS-CoV Urbani [3]: 0.7 | Binding of serum 62 to linear peptides of protein X4 of SARS-CoV Urbani [3]: 0.7 | Binding of serum 62 to looped/cyclic peptides of protein X4 of SARS-CoV Urbani [3]: 0.7 | Binding of serum London to linear peptides of protein X4 of SARS-CoV Urbani [3]: 0.6 | Binding of serum London to looped/cyclic peptides of protein X4 of SARS-CoV Urbani [3]: 0.3 | Binding of serum SARS-green to linear peptides of protein X4 of SARS-CoV Urbani [3]: 0.5 | Binding of serum SARS-green to looped/cyclic peptides of protein X4 of SARS-CoV Urbani [3]: 0.4 | Binding of serum SARS-yellow to linear peptides of protein X4 of SARS-CoV Urbani [3]: 0.5 | Binding of serum SARS-yellow to looped/cyclic peptides of protein X4 of SARS-CoV Urbani [3]: 0.5
